PMC6644330 (ACS Omega, 2017)
Marks after values point to notes of the source that are not given here.

Assays:
[1] = format: physicochemical; conditions: for log KOW (eq 5b): corrected for phase volume ratio vO/vW; for migration from water to octanol (log KOW could not be measured): zwitterions
[2] = cited from earlier work
[3] = 1H NMR method, preliminary account in the Magritek laboratory manual; cited from earlier work

Q: Which “log KOW (eq 5b)” value ([1]; 20–21 °C) does the source give for C1COCCO1 [1,4-dioxane] here?
A: The value was “–0.31”.

Q: What about the “literature log KOW (ref ([9]))” value [2] of the same compound?
A: The value was “–0.27”.

Q: With CCC(C)O (stereo not shown) [2-butanol] as the compound, how does the “log KOW (eq 5b)” value ([1]; 20–21 °C) read?
A: The value was 0.65.

Q: What about the “literature log KOW (ref ([9]))” value [2] of the same compound?
A: The value was 0.61.

Q: Which “log KOW (eq 5b)” value ([1]; 20–21 °C) does the source give for CC(C)CO [2-methylpropanol-1] here?
A: The value was 0.89.

Q: What about the “literature log KOW (ref ([9]))” value [2] of the same compound?
A: The value was 0.76.

Q: Which results are given for CC(C)=O [acetone]?
A: log KOW (eq 5b) ([1]; 20–21 °C): –0.24; KOW ([1]; single measurement, eq 4): 0.589; log KOW ([1]; single measurement, eq 4): −0.23; log KOW (ref ([14])) [3]: –0.23; literature log KOW (ref ([9])) [2]: –0.24

Q: What does the source list for CC#N [acetonitrile]?
A: log KOW (eq 5b) ([1]; 20–21 °C): –0.28; log KOW (ref ([14])) [3]: –0.51; literature log KOW (ref ([9])) [2]: –0.34

Q: With C[C@H](N)C(=O)O [alanine] as the compound, how does the “migration from water to octanol (log KOW could not be measured)” value [1] read?
A: Its value is “did not migrate to any detectable extent”.

Q: What does the source list for CCC(C)=O [butanone]?
A: log KOW (eq 5b) ([1]; 20–21 °C): 0.33; literature log KOW (ref ([9])) [2]: 0.29

Q: Which “log KOW (eq 5b)” value ([1]; 20–21 °C) does the source give for C[S+](C)[O-] [dimethyl sulfoxide] here?
A: The value was “–1.87”.

Q: And the “literature log KOW” value [2]?
A: The value was −2.03 (ref ([1])).

Q: And the “literature log KOW (ref ([9]))” value [2]?
A: The value was “–1.35”.

Q: With CN(C)C=O [dimethylformamide] as the compound, how does the “log KOW (eq 5b)” value ([1]; 20–21 °C) read?
A: Its value is “–1.03”.

Q: Which “log KOW (eq 5b)” value ([1]; 20–21 °C) does the source give for CCOC(C)=O [ethyl acetate] here?
A: Its value is 0.88.

Q: And the “literature log KOW (ref ([9]))” value [2]?
A: The value was 0.73.

Q: Which “migration from water to octanol (log KOW could not be measured)” value [1] does the source give for NCC(=O)O [glycine] here?
A: The value was “did not migrate to any detectable extent”.

Q: With CO [methanol] as the compound, how does the “log KOW (eq 5b), corrected for OH” value ([1]; 20–21 °C, corrected for phase volume ratio and for OH) read?
A: The value was −0.71 ^c.

Q: What about the “log KOW (eq 5b)” value ([1]; 20–21 °C) of the same compound?
A: Its value is “–0.75”.

Q: What about the “log KOW ± SD (eq 4, this work), corrected for OH” value ([1]; 20–21 °C, n = 5, equal phase volumes assumed, corrected for OH) of the same compound?
A: The value was “–0.72 ^c ± 0.016 (n = 5)”.

Q: What about the “correction of log KOW for alcohol OH protons” value ([1]; increase of log KOW) of the same compound?
A: Its value is 0.04.

Q: And the “literature log KOW (ref ([9]))” value [2]?
A: Its value is “–0.77”.

Q: With COC(C)=O [methyl acetate] as the compound, how does the “log KOW (eq 5b)” value ([1]; 20–21 °C) read?
A: The value was 0.19.

Q: What about the “literature log KOW (ref ([9]))” value [2] of the same compound?
A: Its value is 0.18.

Q: For C1CCOC1 [tetrahydrofuran], which “log KOW (eq 5b)” value ([1]; 20–21 °C) is on record?
A: The value was 0.44.

Q: What about the “log KOW (ref ([14]))” value [3] of the same compound?
A: The value was 0.43.

Q: And the “literature log KOW (ref ([9]))” value [2]?
A: Its value is 0.46.
